Experimental data taken from patent US11702428B2, “Chemical compounds as inhibitors of interleukin-1 activity” (Genentech, Inc., priority 2017, dated 2023).
Read-outs that look alike come from different tables or passages of the source.

Columns and labels:
[1] = system: LPS and nigericin stimulated cells; assay: cells; assay type: cell-based; conditions: for IC50: Homo sapiens, read-out: CTG protective IC50
Description: Viability of compound treated cells is measured using CellTiter-Glo® assay (Promega, Madison, Wis.) that measures the ATP content of cells which is proportional to the number of live cells within a well. This is a counter-screen to establish that the reduction of IL-1β levels in LPS and nigericin stimulated and compound treated cells is not due to cytotoxicity, but rather through the inhibition of the inflammasome pathway. Compounds inhibiting NRLP3 inflammasome activation ultimately increase the viability of LPS and nigericin stimulated cells by blocking NLRP3 mediated pyroptosis that would otherwise lead to cell lysis.

[2] = molecular target: NLRP3 inflammasome (Homo sapiens, UniProt Q96P20); assay: NLRP3 inflammasome activation assay in PBMCs (LPS priming, nigericin), IL-1β by ELISA; assay type: cell-based; parameters: Human peripheral blood mononuclear cells (PBMCs); host or cells: primary human PBMCs from healthy donors
Description: Some of the following assays were used to determine the inhibitory activity of the compounds on the NLRP3 inflammasome using a common inflammasome activation stimuli-nigericin.
Human peripheral blood mononuclear cells (PBMCs), consisting of lymphocytes (T, B and NK cells), monocytes and dendritic cells, were freshly isolated from human peripheral blood from healthy donors. Cells were obtained through an IRB approved donor program by iXCells Biotechnologies where all the donors were tested for bacterial and viral infections. Cells were purified from peripheral blood using ficoll gradient centrifugation.
Cells were then stimulated with 10 uM Nigericin (Sigma Aldrich; InvivoGen) for 1.5 h. Plates were centrifuged at 1,500 rpm for 3 minutes to pellet cells and supernatant was transferred into new plates for subsequent experiments.
For ELISA assays cells were seeded into 96-well plates. Post study, supernatants were removed and the levels of mature IL-1β, IL-18 and TNFα (Quantikine ELISA, R&D systems) were measured in cell conditioned media by ELISA according to manufacturer's instructions.

[3] = LPS and nigericin stimulated cells, CellTiter-Glo
[4] = LPS, nigericin, read-out: PBMC IL-1β IC50
[5] = LPS 100 ng/mL 3 h, nigericin 10 uM 1.5 h, read-out: IC50 IL-1β

Sequence of NLRP3 inflammasome (Q96P20 whole entry): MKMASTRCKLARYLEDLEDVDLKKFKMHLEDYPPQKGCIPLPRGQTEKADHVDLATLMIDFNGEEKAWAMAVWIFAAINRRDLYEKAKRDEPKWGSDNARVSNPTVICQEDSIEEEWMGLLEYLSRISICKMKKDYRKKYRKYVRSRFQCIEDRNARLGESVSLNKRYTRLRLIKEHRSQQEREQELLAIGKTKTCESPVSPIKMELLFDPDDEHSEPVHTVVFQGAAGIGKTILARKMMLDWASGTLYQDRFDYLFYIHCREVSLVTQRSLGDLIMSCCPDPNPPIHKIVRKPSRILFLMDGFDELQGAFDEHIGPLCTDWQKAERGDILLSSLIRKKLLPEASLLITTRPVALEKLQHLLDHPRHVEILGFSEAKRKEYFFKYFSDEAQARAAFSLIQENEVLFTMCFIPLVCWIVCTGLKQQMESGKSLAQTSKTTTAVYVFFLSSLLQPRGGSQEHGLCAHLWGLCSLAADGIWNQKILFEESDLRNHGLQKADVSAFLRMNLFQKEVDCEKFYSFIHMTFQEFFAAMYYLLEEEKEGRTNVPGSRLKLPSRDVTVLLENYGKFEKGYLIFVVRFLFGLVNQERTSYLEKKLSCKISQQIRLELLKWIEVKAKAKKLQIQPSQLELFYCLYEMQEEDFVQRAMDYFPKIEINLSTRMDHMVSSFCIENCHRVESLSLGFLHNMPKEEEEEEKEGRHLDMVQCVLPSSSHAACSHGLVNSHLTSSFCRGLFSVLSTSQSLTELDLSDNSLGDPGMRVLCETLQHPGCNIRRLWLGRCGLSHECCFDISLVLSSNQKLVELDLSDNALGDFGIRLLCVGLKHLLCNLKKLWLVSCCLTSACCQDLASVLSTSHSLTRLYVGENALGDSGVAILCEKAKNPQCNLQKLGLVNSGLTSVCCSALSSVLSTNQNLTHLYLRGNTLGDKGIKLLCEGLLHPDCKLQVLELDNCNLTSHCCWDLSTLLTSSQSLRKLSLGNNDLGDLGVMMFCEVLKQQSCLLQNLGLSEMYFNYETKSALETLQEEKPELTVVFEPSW

| SMILES | IC50 [1, 3] | IC50 [2, 4] | other results |
| --- | --- | --- | --- |
| O=C(Nc1c2c(cc3c1CCC3)CCC2)NS(=O)(=O)c1cnn2c1OCC(N1CCC1)C2 (stereo not drawn) | < 0.1 µM | < 0.1 µM | – |
| CNCC1COc2c(S(=O)(=O)NC(=O)Nc3c4c(cc5c3CCC5)CCC4)cnn2C1 (stereo not drawn) | 1 to 10 µM | 1 to 10 µM | – |
| COC1CN([C@@H]2COc3c(S(=O)(=O)NC(=O)Nc4c5c(cc6c4CCC6)CCC5)cnn3C2)C1 | – | – | IC50 [1]: < 0.1 µM |
| O=C(Nc1c2c(cc3c1CCC3)CCC2)NS(=O)(=O)c1ncn2c1OCCC2 | 0.1 to 1 µM | 0.1 to 1 µM | – |
| COC1(C)COc2c(S(=O)(=O)NC(=O)Nc3c4c(cc5c3CCC5)CCC4)cnn2C1 (stereo not drawn) | 0.1 to 1 µM | 0.1 to 1 µM | – |
| NC1COc2c(S(=O)(=O)NC(=O)Nc3c4c(cc5c3CCC5)CCC4)cnn2C1 (stereo not drawn) | < 0.1 µM | 0.1 to 1 µM | – |
| Cc1ccc2cccnc2c1NC(=O)NS(=O)(=O)c1cnn2c1OCCC2 | – | – | CTG protective IC50 [1, 3]: No Curve; PBMC IL-1β IC50 ([2]; LPS, nigericin): No Curve |
| CC(C)c1cccc(C(C)C)c1NC(=O)NS(=O)(=O)c1cnn2c1OCCC2 [drawing 511] | – | 1 to 10 µM | – |
| CO[C@H]1COc2c(S(=O)(=O)NC(=O)Nc3c(C(C)C)cc(F)cc3C(C)C)cnn2C1 | < 0.1 µM | < 0.1 µM | – |
| O=C(Nc1c2c(cc3c1CCC3)CCC2)NS(=O)(=O)c1cnn2c1OCC1(COC1)C2 [drawing 510] | – | 0.1 to 1 µM | – |
| CC[C@H]1COc2c(S(=O)(=O)NC(=O)Nc3c4c(cc5c3CCC5)CCC4)cnn2C1 | < 0.1 µM | < 0.1 µM | – |
| O=C(Nc1c2c(cc3c1CCC3)CCC2)NS(=O)(=O)c1cc2n(n1)CCNC2 | < 0.1 µM | 0.1 to 1 µM | – |
| Cc1nn2c(c1S(=O)(=O)NC(=O)Nc1c3c(cc4c1CCC4)CCC3)OCCC2 | < 0.1 µM | 0.1 to 1 µM | – |
| O=C(Nc1c2c(cc3c1CCC3)CCC2)NS(=O)(=O)c1cnn2c1C(F)(F)CCC2 | > 10 µM | 0.1 to 1 µM | – |
| CN1CCn2nc(S(=O)(=O)NC(=O)Nc3c4c(cc5c3CCC5)CCC4)cc2C1 | 0.1 to 1 µM | 1 to 10 µM | – |
| CC1CCOc2c(S(=O)(=O)NC(=O)Nc3c4c(cc5c3CCC5)CCC4)cnn21 (stereo not drawn) [drawing 516] | < 0.1 µM | < 0.1 µM | – |
| COC1COc2c(S(=O)(=O)NC(=O)Nc3c4c(cc5c3CCC5)CCC4)cnn2C1 (stereo not drawn) [drawing 504] | – | – | IC50 [2, 5]: < 0.1 µM |
| CN[C@H]1COc2c(S(=O)(=O)NC(=O)Nc3c(C(C)C)cc(F)cc3C(C)C)cnn2C1 | – | < 0.1 µM | – |
| NCC1COc2c(S(=O)(=O)NC(=O)Nc3c4c(cc5c3CCC5)CCC4)cnn2C1 (stereo not drawn) | – | 0.1 to 1 µM | – |
| CC(C)(C)OC(=O)NCC1COc2c(S(=O)(=O)NC(=O)Nc3c4c(cc5c3CCC5)CCC4)cnn2C1 (stereo not drawn) | < 0.1 µM | < 0.1 µM | – |

| SMILES | IC50 [1, 3] | IC50 [2, 4] | other results |
| --- | --- | --- | --- |
| CN(C)[C@@H]1COc2c(S(=O)(=O)NC(=O)Nc3c4c(cc5c3CCC5)CCC4)cnn2C1 | – | – | IC50 [1]: > 10 µM |
| CC(C)c1cc(F)cc(C(C)C)c1NC(=O)NS(=O)(=O)c1cnn2c1OCCC2 | 0.1 to 1 µM | 0.1 to 1 µM | – |
| CC(C)c1cccc(C(C)C)c1NC(=O)NS(=O)(=O)c1cnn2c1OCCC2 [drawing 497] | – | – | IC50 [2, 5]: 1 to 10 µM |
| CN1CCn2nc(S(=O)(=O)NC(=O)Nc3c4c(cc5c3CCC5)CCC4)cc2C1=O | – | 1 to 10 µM | – |
| O=C(Nc1c2c(cc3c1CCC3)CCC2)NS(=O)(=O)c1cnn2c1OCC1(COC1)C2 [drawing 496] | – | – | IC50 [2, 5]: 0.1 to 1 µM |
| CC(=O)NCC1COc2c(S(=O)(=O)NC(=O)Nc3c4c(cc5c3CCC5)CCC4)cnn2C1 (stereo not drawn) | < 0.1 µM | < 0.1 µM | – |
| O=C(Nc1c2c(c(Cl)c3c1CCC3)CCC2)NS(=O)(=O)c1cnn2c1OCCC2 [drawing 506] | – | – | IC50 [2, 5]: < 0.1 µM |
| O=C(Nc1c2c(cc3c1CCC3)CCC2)NS(=O)(=O)c1cnn2c1C(F)CCC2 (stereo not drawn) | < 0.1 µM | 0.1 to 1 µM | – |
| O=C(Nc1c2c(cc3c1CCC3)CCC2)NS(=O)(=O)c1cnn2c1OCC(N1CC(F)C1)C2 (stereo not drawn) | < 0.1 µM | 0.1 to 1 µM | – |
| O=C(Nc1c2c(cc3c1CCC3)CCC2)NS(=O)(=O)c1cnn2c1OCC(F)C2 (stereo not drawn) [drawing 503] | – | – | IC50 [2, 5]: 0.1 to 1 µM |
| O=S(=O)(NC(=S)Nc1c2c(cc3c1CCC3)CCC2)c1cnn2c1OCCC2 [drawing 494] | – | – | IC50 [2, 5]: 1 to 10 µM |
| O=C(Nc1c2c(cc3c1CCC3)CCC2)NS(=O)(=O)c1cnn2c1OC[C@@H](O)C2 | < 0.1 µM | 0.1 to 1 µM | – |
| CCN[C@@H]1COc2c(S(=O)(=O)NC(=O)Nc3c4c(cc5c3CCC5)CCC4)cnn2C1 | 1 to 10 µM | 1 to 10 µM | – |
| Cc1ccc(S(=O)(=O)N2CC3(COc4c(S(=O)(=O)NC(=O)Nc5c6c(cc7c5CCC7)CCC6)cnn4C3)C2)cc1 | 0.1 to 1 µM | 1 to 10 µM | – |
| O=C(Nc1c2c(cc3c1CCC3)CCC2)NS(=O)(=O)c1cnn2c1OCCCC2 [drawing 515] | < 0.1 µM | < 0.1 µM | – |
| O=C(Nc1c2c(cc3c1CCC3)CCC2)NS(=O)(=O)c1cnn2c1OCC(CNC(=O)C(F)(F)F)C2 (stereo not drawn) | – | < 0.1 µM | – |
| CC1CCOc2c(S(=O)(=O)NC(=O)Nc3c4c(cc5c3CCC5)CCC4)cnn21 (stereo not drawn) [drawing 502] | – | – | IC50 [2, 5]: 0.1 to 1 µM |
| CCOC1COc2c(S(=O)(=O)NC(=O)Nc3c4c(cc5c3CCC5)CCC4)cnn2C1 (stereo not drawn) | < 0.1 µM | < 0.1 µM | – |
| O=C(Nc1c2c(c(F)c3c1CCC3)CCC2)NS(=O)(=O)c1cnn2c1OCCC2 | < 0.1 µM | < 0.1 µM | – |
| CN(C)CC1COc2c(S(=O)(=O)NC(=O)Nc3c4c(cc5c3CCC5)CCC4)cnn2C1 (stereo not drawn) | – | – | IC50 [1]: 1 to 10 µM |

| SMILES | IC50 [1, 3] | IC50 [2, 4] | other results |
| --- | --- | --- | --- |
| COCC1COc2c(S(=O)(=O)NC(=O)Nc3c4c(cc5c3CCC5)CCC4)cnn2C1 (stereo not drawn) | < 0.1 µM | 0.1 to 1 µM | – |
| CC1(O)COc2c(S(=O)(=O)NC(=O)Nc3c4c(cc5c3CCC5)CCC4)cnn2C1 (stereo not drawn) | < 0.1 µM | 0.1 to 1 µM | – |
| CN1CCn2ncc(S(=O)(=O)NC(=O)Nc3c4c(cc5c3CCC5)CCC4)c2C1=O | – | – | IC50 [1]: 1 to 10 µM |
| CC1(C)Cc2cccc(NC(=O)NS(=O)(=O)c3cnn4c3OCCC4)c2O1 | – | > 10 µM | – |
| CO[C@H]1COc2c(S(=O)(=O)NC(=O)Nc3c4c(c(F)c5c3CCC5)CCC4)cnn2C1 | – | < 0.1 µM | – |
| O=C(Nc1c2c(c(Cl)c3c1CCC3)CCC2)NS(=O)(=O)c1cnn2c1OCCC2 [drawing 520] | – | < 0.1 µM | – |
| CC(C)c1cc(Cl)cc(C(C)C)c1NC(=O)NS(=O)(=O)c1cnn2c1OCCC2 [drawing 498] | – | – | IC50 [2, 5]: 0.1 to 1 µM |
| CC1(C)COc2c(S(=O)(=O)NC(=O)Nc3c4c(cc5c3CCC5)CCC4)cnn2C1 [drawing 499] | – | – | IC50 [2, 5]: < 0.1 µM |
| COC1CN([C@H]2COc3c(S(=O)(=O)NC(=O)Nc4c5c(cc6c4CCC6)CCC5)cnn3C2)C1 [drawing 580] | – | – | IC50 [1]: < 0.1 µM |
| CC1CCn2ncc(S(=O)(=O)NC(=O)Nc3c4c(cc5c3CCC5)CCC4)c2O1 (stereo not drawn) [drawing 505] | – | – | IC50 [2, 5]: < 0.1 µM |
| O=C(Nc1c2c(cc3c1CCC3)CCC2)NS(=O)(=O)c1cnn2c1OCCCC2 [drawing 501] | – | – | IC50 [2, 5]: 0.1 to 1 µM |
| CN[C@@H]1COc2c(S(=O)(=O)NC(=O)Nc3c4c(cc5c3CCC5)CCC4)cnn2C1 | – | – | IC50 [1]: 0.1 to 1 µM |
| O=C(Nc1c2c(cc3c1CCC3)CCC2)NS(=O)(=O)c1cnn2c1OCC(O)C2 (stereo not drawn) [drawing 500] | – | – | IC50 [2, 5]: < 0.1 µM |
| O=C(Nc1c2c(cc3c1CCC3)CCC2)NS(=O)(=O)c1cc2n(n1)CCNC2=O | – | 0.1 to 1 µM | – |
| COc1ccc2cccnc2c1NC(=O)NS(=O)(=O)c1cnn2c1OCCC2 | – | – | PBMC IL-1β IC50 ([2]; LPS, nigericin): No Curve |
| CC1(C)COc2c(S(=O)(=O)NC(=O)Nc3c4c(c(Cl)c5c3CCC5)CCC4)cnn2C1 | – | 0.1 to 1 µM | – |
| CC(C)c1cc(Cl)cc(C(C)C)c1NC(=O)NS(=O)(=O)c1cnn2c1OCCC2 [drawing 512] | – | 0.1 to 1 µM | – |
| COC1CN(C2COc3c(S(=O)(=O)NC(=O)Nc4c5c(cc6c4CCC6)CCC5)cnn3C2)C1 (stereo not drawn) | – | – | IC50 [1]: < 0.1 µM |
